# In patent US20240208907A1, “GPR52 MODULATORS AND METHODS OF USE” (Neurocrine Biosciences, Inc., priority 2021, published 2024):
# Counter-ions that a name gives are not always drawn.
# Biological target: T1, recombinant human GPR52 (Homo sapiens, UniProt Q9Y2T5)
# T1 construct: expressed in transfected cells
# Test: GPR52 activity: TR-FRET cAMP assay (LANCE Ultra cAMP Kit)
# Type: cell-based
# Settings: Flp-In-CHO cells stably expressing recombinant human GPR52; cAMP production, normalized to positive control
# Protocol: TR-FRET cAMP assays were performed using commercially available assay kits (LANCE™ Ultra cAMP Kit). Controls and compounds were solubilized in DMSO using ½ log dilution to generate duplicate 10-point dose response curves in 384-well polypropylene compound plates. Sixty nanoliters of the diluted compounds were transferred into 384-well NBS assay plates and further diluted to 1× with the addition of 2000 cells per well. Flp-In™-CHO cells that stably express recombinant human GPR52.
# Cells were harvested with cell stripper and resuspended in Stimulation Buffer (5 mM HEPES, 0.1% bovine serum albumin (BSA), 0.5 mM IBMX, pH 7.4). After thirty minutes incubation at room temperature, detection reagents were added to each well. Plates were then incubated for 30 minutes at room temperature. The LANCE™ Ultra cAMP assay uses time-resolved fluorescence resonance energy transfer (TR-FRET) to detect cAMP production; this signal was quantified using a Pherastar multi-mode plate reader.
# Dose-response curves were generated from the fluorescence counts normalized to the positive control. E EC50 values were obtained using a nonlinear regression curve-fitting program.
# T1 sequence (Q9Y2T5 whole entry): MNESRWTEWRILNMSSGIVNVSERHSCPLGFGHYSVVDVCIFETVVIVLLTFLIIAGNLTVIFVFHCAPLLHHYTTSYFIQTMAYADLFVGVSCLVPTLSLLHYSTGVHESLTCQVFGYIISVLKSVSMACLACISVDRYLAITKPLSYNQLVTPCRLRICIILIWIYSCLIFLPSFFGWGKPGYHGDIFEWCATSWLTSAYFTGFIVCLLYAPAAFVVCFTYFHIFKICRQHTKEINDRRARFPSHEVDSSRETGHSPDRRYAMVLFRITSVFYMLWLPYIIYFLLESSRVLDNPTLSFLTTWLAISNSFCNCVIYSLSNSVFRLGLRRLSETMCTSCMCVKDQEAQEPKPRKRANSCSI
row,Structure (SMILES),EC50 [nM]
1,"Cc1cc(Cc2ccnc(-c3cccc(C(N)=O)c3)c2)ccc1F [Compound 19, 3-{4-[(4-fluoro-3-methylphenyl)methyl]pyridin-2-yl}benzamide]",25 to 100
2,"NC(=O)Cc1ccc(-c2cc(Cc3cccc(C(F)(F)F)c3)ccn2)cc1 [Compound 18, 2-[4-(4-{[3-(trifluoromethyl)phenyl]methyl}pyridin-2-yl)phenyl]acetamide]",25 to 100
3,"NC(=O)c1cccc(-c2cc(Cc3cc(F)cc(Cl)c3)ccn2)c1 [Compound 25, 3-{4-[(3-chloro-5-fluorophenyl)methyl]pyridin-2-yl}benzamide]",101 to 1000
4,"CSc1cccc(Cc2ccnc(-c3ccc(C(N)=O)c(C)c3)c2)c1 [Compound 5, 2-methyl-4-(4-{[3-(methylsulfanyl)phenyl]methyl}pyridin-2-yl)benzamide]",< 25
5,"Cc1cc(F)cc(Cc2ccnc(-c3ccc(C(N)=O)cc3)c2)c1 [Compound 28, 4-{4-[(3-fluoro-5-methylphenyl)methyl]pyridin-2-yl}benzamide]",101 to 1000
6,"NC(=O)C1CCN(c2cc(Cc3cccc(C(F)(F)F)c3)ccn2)CC1 [Compound 41, 1-(4-{[3-(trifluoromethyl)phenyl]methyl}pyridin-2-yl)piperidine-4-carboxamide]",25 to 100
7,"N#Cc1cc(Cc2ccnc(-c3cccc(C(N)=O)c3)c2)cc(F)c1F [Compound 38, 3-{4-[(3-cyano-4,5-difluorophenyl)methyl]pyridin-2-yl}benzamide]",101 to 1000
8,"NC(=O)c1ccc(-c2cc(Cc3cc(F)cc(Cl)c3)ccn2)cc1 [Compound 21, 4-{4-[(3-chloro-5-fluorophenyl)methyl]pyridin-2-yl}benzamide]",101 to 1000
9,"Cc1cc(Cc2ccnc(-c3ccc(C(N)=O)cc3)c2)ccc1F [Compound 10, 4-{4-[(4-fluoro-3-methylphenyl)methyl]pyridin-2-yl}benzamide]",25 to 100
10,"Cc1cc(-c2cc(Cc3cccc(C(F)(F)F)c3)ccn2)ccc1C(N)=O [Compound 1, 2-methyl-4-(4-{[3-(trifluoromethyl)phenyl]methyl}pyridin-2-yl)benzamide]",< 25
11,"NC(=O)c1ccc(-c2cc(Cc3ccc(F)c(C(F)(F)F)c3)ccn2)cc1 [Compound 23, 4-(4-{[4-fluoro-3-(trifluoromethyl)phenyl]methyl}pyridin-2-yl)benzamide]",101 to 1000
12,"Cc1cc(-c2cc(Cc3cc(F)c(F)c(Cl)c3)ccn2)ccc1C(N)=O [Compound 2, 4-{4-[(3-chloro-4,5-difluorophenyl)methyl]pyridin-2-yl}-2-methylbenzamide]",< 25
13,"Cc1cc(-c2cc(Cc3cccc(C(F)(F)F)c3)ccn2)ccc1C(=O)NCCCO [Compound 37, N-(3-hydroxypropyl)-2-methyl-4-(4-{[3-(trifluoromethyl)phenyl]methyl}pyridin-2-yl)benzamide]",25 to 100
14,"COc1ccc(Cc2ccnc(-c3ccc(C(N)=O)cc3)c2)cc1F [Compound 20, 4-{4-[(3-fluoro-4-methoxyphenyl)methyl]pyridin-2-yl}benzamide]",101 to 1000
15,"Cc1cc(F)cc(Cc2ccnc(-c3cccc(C(N)=O)c3)c2)c1 [Compound 22, 3-{4-[(3-fluoro-5-methylphenyl)methyl]pyridin-2-yl}benzamide]",101 to 1000
16,"N#Cc1cc(Cc2ccnc(-c3cccc(CC(N)=O)c3)c2)cc(F)c1F [Compound 33, 2-(3-{4-[(3-cyano-4,5-difluorophenyl)methyl]pyridin-2-yl}phenyl)acetamide]",101 to 1000
17,"Cc1cc(-c2cc(Cc3cncc(S(C)(=O)=O)c3)ccn2)ccc1C(N)=O [Compound 44, 4-{4-[(5-methanesulfonylpyridin-3-yl)methyl]pyridin-2-yl}-2-methylbenzamide]",< 25
18,"NC(=O)c1cccc(-c2cc(Cc3cc(F)cc(C(F)(F)F)c3)ccn2)c1 [Compound 17, 3-(4-{[3-fluoro-5-(trifluoromethyl)phenyl]methyl}pyridin-2-yl)benzamide]",25 to 100
19,"N#Cc1cc(Cc2ccnc(-c3ccc(C(N)=O)c(F)c3)c2)cc(F)c1F [Compound 24, 4-{4-[(3-cyano-4,5-difluorophenyl)methyl]pyridin-2-yl}-2-fluorobenzamide]",101 to 1000
20,"Cc1cc(-c2cc(Cc3cccc(S(C)(=O)=O)c3)ccn2)ccc1C(N)=O [Compound 11, 4-{4-[(3-methanesulfonylphenyl)methyl]pyridin-2-yl}-2-methylbenzamide hydrochloride]",25 to 100

# Continued, values first:
row,EC50 [nM],Structure (SMILES)
1,25 to 100,"Cc1cc(-c2cc(Cc3cc(F)c(F)c(C#N)c3)c(F)cn2)ccc1C(N)=O [Compound 9, 4-{4-[(3-cyano-4,5-difluorophenyl)methyl]-5-fluoropyridin-2-yl}-2-methylbenzamide]"
2,25 to 100,"Cc1cc(-c2cc(Cc3cccc(S(C)(=O)=O)c3)c(F)cn2)ccc1C(N)=O [Compound 31, 4-{5-fluoro-4-[(3-methanesulfonylphenyl)methyl]pyridin-2-yl}-2-methylbenzamide hydrochloride]"
3,101 to 1000,"CS(=O)(=O)c1cccc(Cc2ccnc(-c3ccc(C(N)=O)cc3)c2)c1 [Compound 27, 4-{4-[(3-methanesulfonylphenyl)methyl]pyridin-2-yl}benzamide]"
4,< 25,"Cc1cc(-c2cc(Cc3cccc(C(F)(F)F)c3)ccn2)ccc1C(=O)N1CCNCC1 [Compound 35, 1-[2-methyl-4-(4-{[3-(trifluoromethyl)phenyl]methyl}pyridin-2-yl)benzoyl]piperazine hydrochloride]"
5,25 to 100,"Cc1cc(-c2cccc(Cc3cccc(C(F)(F)F)c3)n2)ccc1C(N)=O [Compound 12, 2-methyl-4-(6-{[3-(trifluoromethyl)phenyl]methyl}pyridin-2-yl)benzamide]"
6,101 to 1000,"N#Cc1cc(Cc2ccnc(-c3ccc4c(c3)CCNC4=O)c2)ccc1F [Compound 42, 2-fluoro-5-{[2-(1-oxo-1,2,3,4-tetrahydroisoquinolin-6-yl)pyridin-4-yl]methyl}benzonitrile]"
7,101 to 1000,"N#Cc1cc(Cc2ccnc(-c3ccc(C(N)=O)cc3)c2)cc(F)c1F [Compound 30, 4-{4-[(3-cyano-4,5-difluorophenyl)methyl]pyridin-2-yl}benzamide hydrochloride]"
8,25 to 100,"COc1cc(-c2cc(Cc3cc(F)c(F)c(C#N)c3)ccn2)ccc1C(N)=O [Compound 13, 4-{4-[(3-cyano-4,5-difluorophenyl)methyl]pyridin-2-yl}-2-methoxybenzamide]"
9,< 25,"Cc1cc(-c2cc(Cc3cc(F)cc(C#N)c3)ccn2)ccc1C(N)=O [Compound 3, 4-{4-[(3-cyano-5-fluorophenyl)methyl]pyridin-2-yl}-2-methylbenzamide]"
10,> 1000,"N#Cc1cc(F)cc(Cc2ccnc(-c3ccc(C(N)=O)cc3)c2)c1 [Compound 40, 4-{4-[(3-cyano-5-fluorophenyl)methyl]pyridin-2-yl}benzamide]"
11,25 to 100,"Cc1cc(-c2cc(Cc3ccc(F)c(C#N)c3)ccn2)ccc1C(N)=O [Compound 8, 4-{4-[(3-cyano-4-fluorophenyl)methyl]pyridin-2-yl}-2-methylbenzamide]"
12,101 to 1000,"Cc1cc(-c2cc(Cc3cccc(S(=O)(=O)C(F)(F)F)c3)ccn2)ccc1C(N)=O [Compound 34, 2-methyl-4-{4-[(3-trifluoromethanesulfonylphenyl)methyl]pyridin-2-yl}benzamide hydrochloride]"
